The results in this text go back to patent US6642250B2, “1,8-naphthyridin-2(1H)-one derivatives” (Grelan Pharmaceutical Co., Ltd., priority 1999, dated 2003).

For assay [1], the system named is T1, PDE IV.
T1 construct: other: PDE IV from porcine hearts, cAMP 1 μM
Briefly: PDE inhibition, type IV PDE (cAMP substrate). To be noted: PDE IV from porcine hearts, cAMP 1 μM; read-out: Inhibition of PDE Isoenzymes (IC50) IV. It counts as biochemical. The method, then: The assays for PDE activity were conducted according to Nicholson et al. method (Br. J. Pharmacol., 97, 889 (1989)).
Among PDE isozymes, type I, II, III and IV PDEs as used herein were separated from porcine hearts by using an anion exchange chromatography. Type V PDE was also separated from porcine aortae with an anion exchange chromatography and used herein.
Each PDE isozyme was admixed with ethylene glycol (EG) to adjust the final EG concentration to 30%, then stored at −20° C. and diluted when used. The enzymatic activity for PDE I and V was measured using cGMP as a substrate while that for POE II, III and IV was measured using cAMP.
[^3H]-cAMP (962 GBq/mmol; Amersham, 25 μl (100,000 cpm)) or [^3H]-cGMP (962 GBq/mmol; Amersham, 25 μl (100,000 cpm)) was added together with each PDE isozyme (25 μl) to an incubation buffer solution with the composition given below to adjust the total volume to 250 μl. Each test compound was dissolved in DMSO to adjust the final concentration to 1% (2.5 μl/tube).
Incubation buffer solution (pH7.5):
Tris-HCl (50 mM), magnesium chloride (6 mM), dithiothreitol
(2.5 mM), 5-nucleotidase (4 μg/ml), bovine serum albumin
(0.23 mg/ml), and cAMP (1 μM) [or cGMP (1 μM)]
A mixture of the aforementioned test compound solution and the buffer solution was incubated at 30° C. for 20 minutes. The reaction was quenched by admixing with 1 ml of anion exchange resin slurry (AG1-X8, 200-400 meshes, chloride form; Bio-Rad) to absorb unreacted substrates.
After the reaction stopped, the mixture was centrifuged at 200×g for 10 minutes, and the resulting supernatant was collected with vials in 250 μl aliquots. To each vial was added 5 ml of ACS-II (scintillator, Amersham). The radioactivity was measured with a liquid scintillator counter for [^3H]-adenosine or [^3H]-guanosine and set as the PDE activity. The measurements were conducted under conditions wherein the enzymatic activity was elevated by adding calmodulin (20 U/ml; Amersham) and calcium chloride (0.1 mM) for PDE-I and cGMP (1 μM) for PDE II, respectively.
The % inhibition was calculated for test compounds, and IC50 (the concentration of each test compound required for 50% inhibition) was obtained by Probit method. The aforementioned rolipram ((−)-isomer, optical purity: 91% e.e.) known as the PDE IV inhibitor in the prior art was used for the reference compound in this assay.
Further, for a comparison with compounds as disclosed in JP, A, 63-159382 (1988), the PDE-inhibiting activity was also measured for Compounds A and D in Table 1 of JP, A, 63-159382 (1988).

Assay [2] has as its system actively sensitized guinea pigs. Briefly: Inhibition of antigen-induced immediate asthmatic response (airway resistance, Konzett-Rossler method). The settings on record: for inhibition in vivo at 3 mg/kg: Cavia porcellus, po, orally, 60 minutes prior to antigen-challenge, average of 3 animals, read-out: % Reduction of Increase in Airway Resistance; for % reduction of increase in airway resistance: oral administration at a dose of 1 mg/kg. It counts as in vivo, guinea pig. As to the method:
(1) Active Sensitization of Guinea Pigs
Male Hartley outbred guinea pigs were sensitized by administering intraperitoneally physiological saline (0.5 ml) containing ovalbumin (1 mg, antigen) and 5×10^9 inactivated Bordetella pertussis dead cells (adjuvant).
Eleven to thirteen days after the first sensitization, 0.05 ml of an ovalbumin solution (1 mg/ml) (ovalbumin is dissolved in physiological saline) was administered to the lateroabdominal region of each guinea pig intracutaneously. An establishment of sensitization was checked relying on cutaneous reaction. Only guinea pigs wherein significant reddening responses occurred 5 to 10 minutes later were employed in the next measurement test for airway resistance.
(2) Measurement for Airway Resistance in Actively Sensitized-Guinea Pigs
The guinea pigs (3 animals per group) actively sensitized in the above step (1) were employed to measure for their airway pressure according to Konzett-Rossler method (Arch. Exp. Path. Pharmakol., 195, 71 (1940)).
Thirteen days after the final sensitization, guinea pigs fasted overnight, and were on the next day anesthetized with a pentobarbital solution (60 mg/1.2 ml/kg, dissolved in physiological saline, intraperitoneal administration). After the guinea pigs were fixed in a supine position, their trachea was incised followed by insertion with one port of a 4-port cannula. Among the remaining 3 ports, 2 ports were connected to an artificial respirator (Model 683, Harvard). The animals were ventilated with 10 ml/kg of air per ventilation at a rate of 60 beats/min via the artificial respirator from the cannula. One port remainder was connected to a respiratory amplifier (AR-601G, Nihon Kohden, Japan) via an airflow resistance tube (TV-241T, Nihon Kohden, Japan) and a differential pressure transducer (TP-602T, Nihon Kohden, Japan) connected with a control box (RY-111S, Nihon Kohden, Japan). From a catheter inserted into a left carotid artery, blood pressures were monitored with a blood pressure measurement unit (AP641G, NEC Corp., Japan) via a blood pressure transducer (TP-300T, Nihon Kohden, Japan), and heart rates were recorded on a thermal recorder (WT-685G, Nihon Kohden, Japan), relying on blood pressure pulse waves after being led to a cardiograph unit (AT601G, Nihon Kohden, Japan).
After airway pressure became stable, an ovalbumin solution (1 mg/ml, dissolved in physiological saline) was administered at a dose of 1 ml/kg via a tube with which the right jugular vein of guinea pigs was cannulated. Each area under airway pressure-time curve (AUC) was obtained by measuring amplitudes of the airway pressure prior to the antigen-challenge, 1, 2, 3, 4, 5, 10, 15 and 20 minutes post-challenge, and each percent increase (%) in airway resistance was further calculated according to the following equation: [formula]
[…] Control groups received only 0.5% CMC—Na solution in an equivalent amount. The pentobarbital-anesthetization and tracheal incision were conducted 30 minutes prior to the antigen-challenge.
Each percent reduction of increase in airway resistance (each test compound-administered group versus control group) was calculated according to the equation given below. The results are shown in Table 2 wherein each value is an average of 3 animals. Rolipram as described in Assay Example 1 was used for the reference compound in this assay. [formula]
For a comparison with compounds as disclosed in JP, A, 63-159382 (1988), the percent reduction of increase in airway resistance was obtained for the compounds of the present invention (oral administration at a dose of 1 mg/kg), the compounds in Table 1 of JP, A, 63-159382 (1988) (oral administration at a dose of 1 mg/kg), and rolipram (reference compound; oral administration at a dose of 3 mg/kg), respectively, in the same assay manner as in the aforementioned Assay Example 2.

As to `COc1ccc(C2CNC(=O)C2)cc1OC1CCCC1` (single isomer, unassigned) [Rolipram, rolipram, reference compound], in assay [1], the concentration for half-maximal inhibition (IC50) lay within 780 to 3200 nM. Moreover, the inhibition in vivo at 3 mg/kg in assay [2] is 65%.

As for `O=c1c(Cc2cccnc2)cc2cccnc2n1-c1cccc([N+](=O)[O-])c1` [Example No. 2, 1-(3-Nitrophenyl)-3-(pyridin-3-ylmethyl)-1,8-naphthyridin-2(1H)-one], the IC50 in assay [1] is 110 nM. Moreover, the inhibition in vivo at 3 mg/kg in assay [2] came out at 64%.

Regarding `O=c1c(CCc2cccnc2)cc2cccnc2n1-c1cccc([N+](=O)[O-])c1` [Example No. 5, 1-(3-Nitrophenyl)-3-[2-(pyridin-3-yl)ethyl]-1,8-naphthyridin-2(1H)-one], the IC50 in assay [1] amounted to 60 nM. Also, in assay [2], the inhibition in vivo at 3 mg/kg was 90% and the “% reduction of increase in airway resistance” value was 86%.

For `O=c1c(CCc2ccncc2)cc2cccnc2n1-c1cccc([N+](=O)[O-])c1` [Example No. 6, 1-(3-Nitrophenyl)-3-[2-(pyridin-4-yl)ethyl]-1,8-naphthyridin-2(1H)-one], the half-inhibitory concentration (IC50) in assay [1] was found to be 160 nM. For the same compound, in assay [2], the inhibition in vivo at 3 mg/kg came out at 87%.

Consider `O=c1c(CCCc2cccnc2)cc2cccnc2n1-c1cccc([N+](=O)[O-])c1` [Example No. 7, 1-(3-Nitrophenyl)-3-[3-(pyridin-3-yl)propyl]-1,8-naphthyridin-2(1H)-one], for which the IC50 in assay [1] came to 1300 nM. The inhibition in vivo at 3 mg/kg in assay [2] turned out to be 95%.

Take `O=c1c(CCCc2ccncc2)cc2cccnc2n1-c1cccc([N+](=O)[O-])c1` [Example No. 8, 1-(3-Nitrophenyl)-3-[3-(pyridin-4-yl)propyl]-1,8-naphthyridin-2(1H)-one]: the IC50 in assay [1] was determined as 440 nM. In assay [2], the inhibition in vivo at 3 mg/kg worked out at 88% and the “% reduction of increase in airway resistance” value turned out to be 88%.

As for `CSc1cccc(-n2c(=O)c(CCCc3ccncc3)cc3cccnc32)c1` [Example No. 10, 1-(3-Methylthiophenyl)-3-[3-(pyridin-4-yl)propyl]-1,8-naphthyridin-2(1H)-one], the IC50 in assay [1] worked out at 1500 nM. For the same compound, in assay [2], the inhibition in vivo at 3 mg/kg was 82%.

Consider `O=c1c(CCCCc2cccnc2)cc2cccnc2n1-c1cccc([N+](=O)[O-])c1` [Example No. 14, 1-(3-Nitrophenyl)-3-[4-(pyridin-3-yl)butyl]-1,8-naphthyridin-2(1H)-one], for which the IC50 in assay [1] was determined as 1500 nM. In assay [2], the inhibition in vivo at 3 mg/kg came to 92%.

For the compound `O=c1c(CCCCCc2cccnc2)cc2cccnc2n1-c1cccc([N+](=O)[O-])c1` [Example No. 16, 1-(3-Nitrophenyl)-3-[5-(pyridin-3-yl)pentyl]-1,8-naphthyridin-2(1H)-one], the IC50 in assay [1] came out at 1900 nM. Further, in assay [2], the inhibition in vivo at 3 mg/kg was 96%.

As to `O=c1c(CCCc2ccncc2)cc2cccnc2n1-c1cccnc1` [Example No. 23, 1-(Pyridin-3-yl)-3-[3-(pyridin-4-yl)propyl]-1,8-naphthyridin-2(1H)-one], the IC50 in assay [1] worked out at 1200 nM. Further, the inhibition in vivo at 3 mg/kg in assay [2] was determined as 90%.
